Test results taken from patent US6489537B1 (priority 1998, dated 2002).
Where “and” joins values, the source holds several entries; their conditions need not be identical. Equal entries are not always repeated. Where two headings read alike, the source gives them in different places.

Assays:
[1] = test system: S. cerevisiae ycf1Δ mutant strain DTY167; type: cell-based; conditions: for IC50: read-out: concentration required for 50% attenuation of cell density
[2] = test system: S. cerevisiae cells expressing TaPCS1; conditions: 6 hour preincubation, 200 μM Cd2+, OD 18 hours after Cd2+
[3] = test system: S. cerevisiae cells expressing an Arabidopsis metallothionein; assay: Growth in presence of Cd2+ after BSO preincubation, metallothionein cells; type: cell-based; conditions: 6 hour preincubation, 60 μM Cd2+, OD 18 hours after Cd2+
Protocol: FIG. 13A is a graph depicting phytochelatin synthesis in cells expressing PCS. The growth of S. cerevisiae cells expressing either TaPCS1 (circles) or an Arabidopsis metallothionein (squares) in the presence of Cd^2+ (200 μM for TAPCS1 and 60 μM for metallothionein) following a 6 hour preincubation using different concentrations of BSO (L-Buthionine-sulfoxime), a glutathione synthesis inhibitor. The OD was measured 18 hours after the addition of Cd^2+.

[4] = test system: TaPCS1 message; assay: Competitive PCR of TaPCS1 expression in wheat roots; type: in vivo; conditions: wheat roots treated with 100 μM Cd2+ for 6 hours versus untreated
[5] = test system: S. cerevisiae INVSc1 cells; assay: Cd2+ dose-response growth of TaPCS1-expressing and control yeast cells; type: cell-based; conditions: YNB 1% sucrose/1% galactose, OD600 after 24 hours, read-out: K0.5 for growth
[6] = test system: S. cerevisiae cells; assay: Cd2+ accumulation using 109Cd2+; type: cell-based; conditions: versus empty pYES2 cells; 24 hour culture, non-inhibitory Cd2+ concentrations, n=3
Protocol: FIG. 10 is a graph depicting the greater accumulation of Cd^2+ by cells expressing TaPCS1 compared to the Cd^2+ accumulation by control cells. Yeast cells carrying the empty pYES2 plasmid (white bars) and TaPCS1-expressing cells (black bars) were grown in arginine-phosphate medium containing different non-inhibitory Cd^2+ concentrations. After 24 hours, the cells were harvested and washed and the amount of Cd^2+ accumulated inside the cells was determined using ^109 Cd^2+ (Error bars=S.E., n=3).
S. cerevisiae cells were grown in arginine-phosphate medium for 24 hours in the presence of various amounts of CdCl2 containing 0.5 μCi ^109Cd^2+. The cells were harvested and washed. The radioactivity was determined as described previously (Clemens et al., 1998, Proc. Natl. Acad. Sci. U.S.A. 95:12043-12048).

[7] = PC synthase activity assay (incorporation of GSH into PC2 and PC3); type: biochemical; conditions: for aggregate rate of incorporation of GSH into PC2 and PC3: purified protein
Protocol: PC synthase activity was assayed according to Grill et al. (1989, Proc. Natl. Acad. Sci. U.S.A. 86:6838-6842) in reaction media containing crude soluble fraction (50 μg protein), purified AtPCS1-FLAG (0.5 μg) or no protein, 3.3 mM GSH, 10 mM 2-mercaptoethanol and 200 mM Tris-HCl buffer (pH 8.0) plus or minus 200 μM CdCl2 at 37° C. for 40 minutes. After terminating the reactions with 5% (w/v) 5-sulfosalicylic acid, PCs were estimated in the supernatant by reverse-phase FPLC and reaction with DTNB.

[8] = Equilibrium dialysis of purified AtPCS1-FLAG against 109CdCl2; type: binding; conditions: immunoaffinity-purified protein
Protocol: The binding of Cd^2+ was determined by equilibrium dialysis of a 400-800 μl (160 μg) sample of purified AtPCS1-FLAG against 80 ml volumes of 10 mM Tris-HCl buffer, pH 7.8, containing 0.05 to 20 μM ^109CdCl2 (specific activity 22 Ci/mol, Amersham Pharmacia Biotech, Piscataway, N.J.) for 12 hours at 4° C. in 2 ml mini-collodion membrane tubes (molecular weight cut-off of 25,000; Schleicher and Schuell, Inc., Keene, N.H.). Protein-bound ^109Cd was estimated by measuring the radioactivity of the bulk medium outside the dialysis tube and that of the solution within the dialysis tube and determining the increase in ^109Cd radioactivity consequent on AtPCS1-FLAG. Binding constants and stoichiometries of binding were estimated by nonlinear least squares analysis (Marquardt, 1963, J. Soc. Ind. Appl. Math. 11:431-441) using the Ultrafit nonlinear curve fitting package from BioSoft (Ferguson, Mo.).

[9] = test system: S. cerevisiae; assay: Growth of PCS-expressing yeast on YNB medium with 100 μM Cd2+; type: cell-based

O=[As]O [AsO2^−]
fold increase in concentration exerting 50% inhibition of growth in liquid culture [1]: 1.6 fold | IC50 [1]: 200 µM and 325 µM

CCCCS(=N)(=O)CCC(N)C(=O)O [BSO, L-Buthionine-sulfoxime]
effect on TaPCS1-mediated Cd2+ tolerance [2]: reduced the TaPCS1-mediated Cd^2+ tolerance in a dose-dependent manner | effect on metallothionein-dependent Cd2+ tolerance [3]: no effect

[Cl][Cd][Cl] [Cd^2+, CdCl2]
fold higher concentration of TaPCS1 message [4]: 5-10 fold | fold increase in concentration exerting 50% inhibition of growth in liquid culture [1]: 24 fold | IC50 ([5]; TaPCS1-expressing cells): 90 µM | IC50 ([5]; control cells with empty pYES2): 6 µM

[Cu+2] [Cu^2+]
fold increase in concentration exerting 50% inhibition of growth in liquid culture [1]: 2.4 fold

[Hg+2] [Hg^2+]
fold increase in concentration exerting 50% inhibition of growth in liquid culture [1]: 1.6 fold | IC50 [1]: 4 µM and 6.3 µM

B1: TaPCS1: wheat (Triticum aestivum) phytochelatin synthase, SEQ ID NO: 6 (protein, UniProt Q9SWW5 1-500, looked up)
Glutathione …: MEVASLYRRVLPSPPAVEFASAEGKRLFAEALQGGTMEGFFNLISYFQTQSEPAFCGLASLSVVLNALAIDPGRPWKGPWRWFDESMLDCCEPLHKVKAEGITFGKVVCLAHCAGARVQSFRADQTTIHDFRAHLTRCASSQDCHLISSYHRSPFKQTGTGHFSPIGGYHAEKDMALILDVARFKYPPHWVPLTLLWDAMNTTDEATGLLRGFMLVSRRSSAPSLLYTVSCGHGSWKSMAKYCVEDVPNLLKDESLDNVTTLLSRLVESLPANAGDLIKCVIEVRRKEEGESSLSKEEKERLFLKEKVLQQIRDTDLFRVVHELQYPKGLCGSCSSSSDEDSLAEIAATVCCQGAAFLSGNLVSRDGFCCRETCIKCIEANGDGLKTVISGTVVSKGNEQAVDLLLPTSSSKTSLCNSNLKSKIVKYPSSTDVLTVLLLVLQPNTWLGIKDENVKAEFQSLVSTDNLPDLLKQEILHLRRQLHYLAGCKGQEACQEPPSP
increase in Cd2+ accumulation [6]: 30-50%

B2: AtPCS1-FLAG (protein, UniProt Q9S7Z3 1-485, looked up)
Glutathione …: MAMASLYRRSLPSPPAIDFSSAEGKLIFNEALQKGTMEGFFRLISYFQTQSEPAYCGLASLSVVLNALSIDPGRKWKGPWRWFDESMLDCCEPLEVVKEKGISFGKVVCLAHCSGAKVEAFRTSQSTIDDFRKFVVKCTSSENCHMISTYHRGVFKQTGTGHFSPIGGYNAERDMALILDVARFKYPPHWVPLKLLWEAMDSIDQSTGKRRGFMLISRPHREPGLLYTLSCKDESWIEIAKYLKEDVPRLVSSQHVDSVEKIISVVFKSLPSNFNQFIRWVAEIRITEDSNQNLSAEEKSRLKLKQLVLKEVHETELFKHINKFLSTVGYEDSLTYAAAKACCQGAEILSGSPSKEFCCRETCVKCIKGPDDSEGTVVTGVVVRDGNEQKVDLLVPSTQTECECGPEATYPAGNDVFTALLLALPPQTWSGIKDQALMHEMKQLISMASLPTLLQEEVLHLRRQLQLLKRCQENKEEDDLAAPAY
modifications: FLAG tag
aggregate rate of incorporation of GSH into PC2 and PC3 ([7]; absence of Cd2+): < 0.01 nmol/mg/min | aggregate rate of incorporation of GSH into PC2 and PC3 ([7]; presence of Cd2+ (200 μM CdCl2), 3.3 mM GSH, 37° C.): 30000 to 35000 nmol/mg/min | catalytic activity exceeding that of previous preparations from plants ([7]; versus Grill et al., 1989): more than 10^3 fold | stoichiometric ratio of Cd2+ binding (cadmium per AtPCS1) [8]: 7.09±0.94

B3: AtPCS1: Arabidopsis thaliana phytochelatin synthase, 55 kDa, SEQ ID NO: 2 (protein, UniProt Q9S7Z3 1-485, looked up)
Glutathione …: MAMASLYRRSLPSPPAIDFSSAEGKLIFNEALQKGTMEGFFRLISYFQTQSEPAYCGLASLSVVLNALSIDPGRKWKGPWRWFDESMLDCCEPLEVVKEKGISFGKVVCLAHCSGAKVEAFRTSQSTIDDFRKFVVKCTSSENCHMISTYHRGVFKQTGTGHFSPIGGYNAERDMALILDVARFKYPPHWVPLKLLWEAMDSIDQSTGKRRGFMLISRPHREPGLLYTLSCKDESWIEIAKYLKEDVPRLVSSQHVDSVEKIISVVFKSLPSNFNQFIRWVAEIRITEDSNQNLSAEEKSRLKLKQLVLKEVHETELFKHINKFLSTVGYEDSLTYAAAKACCQGAEILSGSPSKEFCCRETCVKCIKGPDDSEGTVVTGVVVRDGNEQKVDLLVPSTQTECECGPEATYPAGNDVFTALLLALPPQTWSGIKDQALMHEMKQLISMASLPTLLQEEVLHLRRQLQLLKRCQENKEEDDLAAPAY
stoichiometric ratio of Cd2+ binding (cadmium per AtPCS1) [8]: approximately 6 | Cd2+ tolerance conferred when expressed in S. cerevisiae [9]: strong Cd^2+ tolerance
